Source: patent US9629835B1, “Method for treating tau-associated diseases” (NATIONAL TAIWAN NORMAL UNIVERSITY, priority 2016, dated 2017)

What was measured:
[1] = system: ΔK280 tauRD-DsRed 293 cells; assay: DsRed fluorescence (tau aggregation) in Tet-On ΔK280 tauRD-DsRed 293 cells, high content analysis; format: cell-based, human; conditions: for DsRed fluorescence intensity relative to untreated cells (100%): 10 μM, 8 h pre-treatment, doxycycline 3 days
Procedure: We used HEK-293 human cells expressing a DsRed-tagged proaggregation mutant (ΔK280) of the C-terminal repeat domain of tau (tauRD-Gln^244-Glu^372 of the longest tau^441 isoform). The recombinant tauRD-DsRed construct was under the control of a hybrid human cytomegalovirus (CMV)/TetO2 promoter that can be induced by adding doxycycline. The Tet-On ΔK280tauRD-DsRed293 cells were grown in medium containing blasticidin (5 μg/mL) and hygromycin (100 μg/mL) and were used for the following evaluation.
(§1) TauRD-DsRed 293 cells were plated into 96-well plates, grown for 24 h, and treated with 0.1, 1, 10 μM of congo red (a known tau aggregation inhibitor), compound (I), compound (II), and compound (III) (SB216763) for 8 h. Then doxycycline (Dox; 1 μg/mL) was added for 3 days and DsRed fluorescence was assessed using a high content analysis system (HCA) system (ImageXpressMICRO, Molecular Devices).
According to the fluorescence microscopy images of untreated cells, and cells treated with congo red, compound (I), compound (II), and SB216763, the quantification results are shown in FIG. 1 which were analyzed related to 100% fluorescence intensity of the untreated cells. […] Based on the results that described above, compound (I) and compound (II) have the ability to decrease tau-aggregation in tauRD-DsRed 293 cells (*p<0.05, **p<0.01).

[2] = Cytotoxicity in tauRD-DsRed 293 cells; format: cell-based; conditions: human, 50% of viability
Procedure: as §1
Also, IC50 cytotoxicity of tauRD-DsRed 293 cells is shown in FIG. 2, wherein the standard line represents 50% of viability.

[3] = system: mouse hippocampal primary culture cells; assay: Mouse hippocampal primary culture under tau toxicity induced by Wortmannin and GF 109203X; format: cell-based; conditions: 1 μM, 12 hours, with 10 nM Wortmannin and GF 109203X
Procedure: The mouse hippocampal primary culture cells were isolated from the hippocampi of C57BL/6J mouse embryos at days 16-18. On days in vitro (DIV) 4 and 7, 2 μM of cytosine arabinoside was added to the culture medium to reduce the glial cell populations. On DIV 9, the cells were treated with 10 nM of Wortmannin (WT) and GF 109203X (GFX) to induce tau hyperphosphorylation to mimic an AD condition.
1 μM of compound (I) or compound (II) were then added to the cells at DIV 9. Cells were harvested 12 hours later for immunocytochemical staining with NeuN (for neuron) and MAP2 (for neurite morphology) antibodies.
The quantification of neuron numbers (NeuN relative expression levels), neurite outgrowth, and the relative number of neuron branches are shown in FIG. 7 to FIG. 9 (*, vs. control; #, vs. WT+GFX. * p<0.05; **/##p<0.01; ###p<0.001). […] The results indicated significant neuronal protective effects of compound (I) and compound (II).

Recombinant human GSK-3β = target: T1, Recombinant human GSK-3β (Homo sapiens, UniProt P49841); assay: GSK-3β kinase activity, ADP-Glo Kinase Assay; format: biochemical
T1 construct: purchased Promega V1991
Procedure: GSK-3β kinase activity was measured in the presence of the tested compounds (I) and (II) using ADP-Glo™ Kinase Assay system (Promega). Recombinant human GSK-3β (Product code V1991, Promega) was used as the enzyme source, and the GSK-3β substrate was derived from human muscle glycogen synthase 1 peptide ([…](pS)EDEEE) which corresponded to a region of glycogen synthase that was phosphorylated by GSK-3β. Reactions were performed at 30° C. for 30 minutes in the 25 μL mixture that contained 25 μM ATP, 0.2 mg/mL GSK-3β substrate, 1 ng of GSK-3β, and serial dilutions of compound (I), compound (II), or compound (III). Kinase activity data were measured as relative light units (RLU) directly correlated with the amount of ADP produced.
The IC50 values of compound (I), compound (II), and compound (III) were determined by using SigmaPLOT software. […] When the concentration of compound (I) and compound (II) were […] μM, the residual activities of GSK-3β of compounds (I) and (II) were 36.1±1.1%, and 90.9±6.6%, respectively.

GSK-3β = assay: Western blot of total GSK-3β and phosphorylated GSK-3β (Ser9) in tauRD-DsRed SH-SY5Y cells; format: cell-based, human; conditions: 10 μM
Procedure: We used human neuroblastoma cells (SH-SY5Y) expressing a DsRed-tagged proaggregation mutant (ΔK280) of the C-terminal repeat domain of tau (tauRD-Gln^244-Glu^372 of the longest tau^441 isoform). The recombinant tauRD-DsRed construct was under the control of a hybrid human cytomegalovirus (CMV)/TetO2 promoter that can be induced by adding doxycycline. The Tet-On ΔK280 tauRD-DsRed SH-SY5Y cells were grown in medium containing blasticidin (5 μg/mL) and hygromycin (100 μg/mL) and were then used for the following evaluation. […]
First, SH-SY5Y tauRD-DsRed cells were seeded in 6-well plates (1×10^5/well) in a medium containing all-trans retinoic acid ([…] Sigma) for inducing the neural differentiation. […] Next, immunoreactive bands were detected using horseradish peroxidase-conjugated goat anti-mouse, goat anti-rabbit, or donkey anti-goat IgG antibodies (1:5000; GeneTex) and chemiluminescent substrate (Millipore) for evaluating the expression levels thereof in cells.
The expression levels of total GSK-3β and phosphorylated GSK-3β are shown in FIG. 3 and the quantifications thereof are shown in FIG. 4 (*p<0.05, ***p<0.001). […]

T1 sequence (P49841 whole entry): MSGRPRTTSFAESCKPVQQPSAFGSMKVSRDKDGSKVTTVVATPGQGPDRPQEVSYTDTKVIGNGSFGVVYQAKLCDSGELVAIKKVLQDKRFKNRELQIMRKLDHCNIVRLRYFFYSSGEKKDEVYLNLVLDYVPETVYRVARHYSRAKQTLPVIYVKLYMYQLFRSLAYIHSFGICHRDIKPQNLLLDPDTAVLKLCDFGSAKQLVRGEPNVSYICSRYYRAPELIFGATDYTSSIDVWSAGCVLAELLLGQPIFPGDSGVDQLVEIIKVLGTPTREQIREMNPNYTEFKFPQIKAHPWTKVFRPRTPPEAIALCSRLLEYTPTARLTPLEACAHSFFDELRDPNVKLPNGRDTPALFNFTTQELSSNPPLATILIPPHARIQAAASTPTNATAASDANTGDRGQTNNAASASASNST

Row | Compound | DsRed fluorescence intensity relative to untreated cells (100%) [1] | IC50 [2] | neuronal protective effect (NeuN neuron number, neurite length, neurite branches) [3] | remaining activity at 0.018 µM (Recombinant human GSK-3β; compound concentration 0.018 μM, read-out: residual activity of GSK-3β) | IC50 (Recombinant human GSK-3β; recombinant human GSK-3β, 25 μM ATP, 30° C., 30 minutes) | total GSK-3β expression vs untreated cells (GSK-3β) | effect on tauRD-DsRed fluorescence ([1]; 0.1, 1, 10 μM)
1 | Nc1c(/N=N/c2ccc(-c3ccc(/N=N/c4cc(S(=O)(=O)O)c5ccccc5c4N)cc3)cc2)cc(S(=O)(=O)O)c2ccccc12 [congo red] | 110% | – | – | – | – | – | –
2 | Cc1ccc(-c2cc(-c3ccncc3)nc3ccccc23)cc1 [compound (I)] | 116% | 25.7 µM | alleviate the reduction of neuronal survival rate, neurite length, and/or neurite branches | 36.1 ± 1.1% | 0.0002 µM | remained about the same without significant changes | –
3 | CN1CC(C2=C(c3ccc(Cl)cc3Cl)C(=O)NC2=O)c2ccccc21 (centres unmarked) [compound (III), reference compound] | – | – | – | – | – | – | no effect
